Source: patent US20250270289A1, “SEQUENCE-DEFINED POLYMERS WITH ONE OR MORE AZIDES, METHODS OF MAKING, AND METHODS OF USE THEREOF” (Yale University, priority 2021, published 2025)
Read-outs that look alike come from different tables or passages of the source. Starred links: 1 amine or outer side, 2 acyl side, 3 side chain; linkers in the order of their positions; H or OH if unused. Non-standard residues stand in square brackets, D forms with d. Residues, ends and D or L forms follow the SMILES beside them. X1 = O=C([C@H](Cc1ccc(NP(=O)(O)O)cc1)N[*:1])[*:2]

How the values were obtained:
[1] = molecular target: T1, pAcFRS.1.t1 synthetase (Methanocaldococcus jannaschii, UniProt Q57834, A167D/D158G/D286R/I159C/L162R/R257G/Y32L); test: In vitro tRNA charging assay; type: biochemical; conditions: purified pAcFRS.1.t1, 1 mM amino acid
T1 construct: His; made in house
T1 sequence (Q57834 whole entry Y32L/D158G/I159C/L162R/A167D/R257G/D286R): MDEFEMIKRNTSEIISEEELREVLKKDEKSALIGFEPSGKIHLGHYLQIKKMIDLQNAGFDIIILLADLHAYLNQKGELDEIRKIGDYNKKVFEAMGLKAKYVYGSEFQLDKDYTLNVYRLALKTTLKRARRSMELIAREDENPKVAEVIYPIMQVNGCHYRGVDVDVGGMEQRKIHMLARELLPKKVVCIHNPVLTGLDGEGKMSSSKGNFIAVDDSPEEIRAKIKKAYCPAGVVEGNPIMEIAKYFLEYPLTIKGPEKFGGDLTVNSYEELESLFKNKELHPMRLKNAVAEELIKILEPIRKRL
Protocol: The pAcFRS.1.t1 synthetase was His-purified, and stored in 50 mM KCl, 50 mM HEPES-KOH at pH 7.5, 10% glycerol. The cognate tRNA was in vitro transcribed (IVT) from dsDNA template containing a T7 promoter, hammerhead ribozyme and tRNA, as described previously(Fechter et al., 1998). The IVT buffer consists of 40 mM Tris-HCl at pH8.0, 0.01% Triton X, 30 mM MgCl2, 2 mM Spermidine, 1 mM DTT. For a 100 μL reaction, 4 mM riboNTPs (N0466S, NEB), 100U T7 (M0251S, NEB) and 1-2 μM dsDNA template were added. The reaction was incubated at 37° C. for 3 h. Afterwards, the sample was diluted 5× with reaction buffer, and heated to 65C for 1 h to promote hammerhead cleavage. After a phenol:chloroform extraction, the cleaved tRNA was separated from other fragments using a TBE-Urea gel. Finally, the tRNA was refolded by slowly cooling the sample from 95° C. to r.t. At 65° C., MgCl2 was added to a final concentration of 10 mM.
aaRS specificity was measured using in vitro charging. The reaction composition was 150 mM HEPES-KOH at pH 7.5, 10 mM MgCl2, 2.5 mM DTT, 0.2 mg/mL BSA, 2 mM ATP, 1 mM amino acid, 500 nM aaRS and 750 nM tRNA. The reactions were incubated at 37° C. for 30 min. Afterwards, they were quenched using loading buffer (0.1 M sodium acetate pH 5.0, 8 M urea, 0.05% bromophenol blue, 0.05% xylene cyanol FF). The samples were then analyzed on an acid-urea PAGE gel (8 M urea, 0.1 M sodium acetate at pH 5.2) (Varshney et al., 1991), that was prerun in running buffer (0.1 M NaOAc at pH 5.2) for 20 min at 13 W. After sample loading, the gel was run at a constant 13 W for 20 h. The tRNA was visualized with ethidium bromide staining.

[2] = Reduction of pAzF to pAF under purification pH and temperatures (HRMS); type: physicochemical; conditions: pH 6.6, 7.2, 7.9; 4, 20, 34 or 80° C.
Description: High-resolution mass spectrometry (HRMS) data was collected using an Agilent iFunnel 6550 Quadrupole Time-Of-Flight (QTOF) MS with an electrospray ionization (ESI) source, coupled to an Agilent Infinity 1290 ultra-high-performance liquid chromatography (UHPLC) system with an Agilent Eclipse Plus C18 1.8 μm, 4.6×50 mm column. Solvents used were (solvent A) water 0.1% formic acid and (solvent B) CH3CN 0.1% formic acid. Mass spectra were gathered using Dual Agilent Jet Stream (AJS) ESI in positive mode. The mass range was set from 110 to 1700 m/z with a scan speed of 3 scan/second. The capillary and nozzle voltages were set to 5500 and 2000 V, respectively. […] MS data were acquired with MassHunter Workstation Data Acquistion (Version B.06.01, Agilent Technologies) and analyzed using MassHunter Qualitative Analysis (Version B.07.00, Agilent Technologies). Protein quantification was performed using peptide standards with the same sequence as the digested peptides, or based on calibration curves produced using dilutions series of peptide(1TAG)-GFP.
Experiments were designed to assess if reduction of pAzF residues occurs during protein purification or MS analysis. Experiments evaluated if pAzF is reduced over a range of pH (6.6, 7.2, 7.9) and temperatures (4, 20, 34, or 80° C.) used during sample purification, and found minimal (<1%) reduction to pAF under all conditions. […]

[3] = molecular target: Src SH2 domain (Homo sapiens, UniProt P12931); test: Fluorescence polarization assay, direct binding and competition with FITC-pTyrEEI
Protocol: They were then induced with 1 mM IPTG and grown overnight. Cells were pelleted prior to freezing at −80° C. Pellets were resuspended in lysis buffer (50 mM Tris, pH 8.0, 500 mM NaCl, 0.5 mM EDTA, 0.5 mM EGTA, 10% glycerol) and then sonicated. Clarified lysate was incubated with Glutathione Sepharose 4B resin, washed (50 mM Tris, pH 8.0, 50 mM NaCl, 10% glycerol) and eluted from resin in elution buffer (20 mM reduced glutathione, 50 mM Tris, pH 8.0, 50 mM NaCl, 10% glycerol, pH 8.0). […] Protein was stored at −80° C. […] Kd was established using one-site binding model in GraphPad Prism version 7 for Mac (GraphPad Software, La Jolla, CA, USA). Unlabeled peptides were diluted to 100 μM in assay buffer. […] A full-dissociation control was established with 10 nM peptide in assay buffer. […] EC50 for percent inhibition was estimated by plotting log10[agonist] vs. response and fitting a four-parameter variable slope fit in GraphPad Prism.

Compound: Nc1ccc(C[C@H](N)C(=O)O)cc1 [pAF, para-amino-phenylalanine]
- charging onto the cognate tRNA [1]: no charging

Compound: [N-]=[N+]=Nc1ccc(C[C@H](N)C(=O)O)cc1 [pAzF, para-azido-phenylalanine]
- reduction to pAF [2]: < 1%
- charging onto the cognate tRNA [1]: charged

Compound: CC[C@H](C)[C@H](NC(=O)[C@@H]1CCCN1C(=O)[C@@H](NC(=O)[C@H](CCC(=O)O)NC(=O)[C@H](CCC(=O)O)NC(=O)[C@H](Cc1ccc(NP(=O)(O)O)cc1)NC(=O)[C@H](CCC(N)=O)NC(=O)[C@@H]1CCCN1C(=O)[C@@H](N)CCC(=O)O)[C@@H](C)CC)C(=O)N[C@@H](Cc1ccc(O)cc1)C(=O)N[C@@H](CC(C)C)C(=O)O [pnY peptide] (H-EPQ[X1]EEIPIYL-OH; N-terminus and C-terminus assumed)
- EC50 [3]: 12.8 µM
- Decrease in binding affinity with SH2 ([3]; pnY peptide EC50 compared with […], Src SH2): 17 fold

Compound: N[C@@H](Cc1ccc(O)cc1)C(=O)O [tyrosine]
- charging onto the cognate tRNA [1]: no charging

Compound: EPQYEEIPIYL [Tyr peptide, reference compound]
- EC50 ([3]; competition with FITC-labeled pTyr peptide): No increase in unbound FITC-pTyr peptide
